According to patent US8809280B2, “Therapeutic peptides” (Lytix Biopharma AS, priority 2009, dated 2014):
≈ marks a conversion by molar mass, not a printed value. Read-outs that look alike come from different tables or passages of the source.

Tests used:
Type in all cases: cell-based
[1] = tested on: Staphylococcus aureus (ATTC 25923); experiment: microbe, parasite or virus in culture
Procedure: (§1) The antimicrobial testing was conducted by TosLab A/S (Tromsø, Norway). Each compound was diluted to 1 mg/ml in water and tested in duplicates at 200, 100, 50, 35, 15, 10, 5, 2.5, 1, 0.5 μg/ml except 4n which was tested at 50, 35, 15, 10, 5, 2.5, 1, 0.5 μg/ml due to solubility problems. All tested compounds were di TFA salts.
(§2) The bacterial strains were grown in 2% Bacto Peptone water until exponential growth was achieved. […] A bacterial concentration of 2×10^6 cfu/ml was used. Both negative control (no peptide) and positive control (Gentamicin) was used for all bacterial strains. Growth or no growth was judged by the turbidity of the wells.
Staphylococcus aureus (ATTC 25923)
(§3) Antimicrobial assays: 200 μg/ml
(§4) Suitable methodologies are described in Example 1.
(§5) Each compound was tested in duplicates at 200, 100, 50, 35, 15, 10, 5, 2.5, 1, 0.5 μg/ml. All tested compounds were di-trifluoroacetic acid salts.

[2] = tested on: methicillin resistant Staphylococcus aureus (ATCC 33591); experiment: microbe, parasite or virus in culture
Procedure: as §1, §2
Methicillin resistant Staphylococcus aureus (ATCC 33591)
as §3, §4, §5

[3] = tested on: methicillin resistant Staphylococcus epidermidis (ATCC 27626); experiment: microbe, parasite or virus in culture
Procedure: as §1, §2
Methicillin resistant Staphylococcus epidermidis (ATCC 27626)
as §3, §4, §5

[4] = tested on: Escherichia coli (ATTC 25922); experiment: microbe, parasite or virus in culture; conditions: for MIC E. coli: Example 1, di TFA salts, highest concentration tested 200 μg/ml
Procedure: as §1, §2
Escherichia coli (ATTC 25922)
as §3, §4, §5

human red blood cells = experiment: cells; conditions: for EC50 RBC: highest concentration tested 1000 μg/ml; for EC50: red cells of human
Procedure: The hemolytic testing against human erythrocytes was conducted by Lytix Biopharma A/S (Tromso, Norway). Each compound was tested from a concentration of 1 mg/ml and lower, except 4k and 4n which was only tested up to 0.5 mg/ml due to solubility problems. 8 mL of blood was collected from adult healthy male donors. The blood was divided equally and distributed in a commercial available EDTA containing test tube (BD vacutainer, 7.2 mg K2 EDTA) and in a 10 mL reaction vial containing 40 μL of a heparin solution (1000 U/mL in 0.9% sodium chloride). After 30 minutes the hematocrit of the EDTA treated blood was determined. The heparinized blood was centrifuged for 10 minutes at 1500 rpm and the supernatant removed. Subsequently the RBCs were washed with prewarmed PBS three times, and diluted to 10% hematocrit. The compounds dissolved in PBS (concentration 1 μg/mL to 1000 µg/mL) and the erythrocytes were incubated under agitation at 37° C. for one hour. A positive control with an end concentration of 0.1% TRITON X-100 (nonionic surfactant) and a negative control containing pure PBS buffer were included. The samples were centrifuged (4000 rpm) for 5 minutes and the absorption of the supernatant was measured at 405 nm. The values given in Table 1A correspond to 50% hemolysis.
The plasma fraction of heparinized human blood was first removed by centrifugation and three additional washing steps with 37° C. pre-warmed phosphate buffered saline (PBS). Subsequently, the human RBC were diluted to 10% hematocrit and the β^2,2-amino acid derivatives were dissolved in PBS providing concentrations ranging from 1-1000 μg/mL. The diluted RBC were added to the compound solutions to a final erythrocyte concentration of 1% v/v. PBS and TRITON X-100 (non-ionic surfactant), in a final concentration of 0.1% v/v, were included as negative and positive control. After 1 hour agitated incubation at 37° C. the samples were centrifuged at 4000 rpm for 5 min. Release of hemoglobin was determined by measuring the absorbance of the supernatant at 405 nm. Hemolytic activity was calculated as the ratio of treated sample with β^2,2-amino acid derivative and tenside treated sample according to the formula: […]

[5] = ATTC 25923, read-out: MIC S. aureus
[6] = ATCC 33591, read-out: MIC MTRSA
[7] = ATTC 25922, read-out: MIC E. coli
[8] = Example 1, 50% hemolysis of human red blood cells

| MIC [1, 5] [µM] | MIC ([3]; ATCC 27626, read-out: MIC MRSE) [µM] | MIC [4, 7] [µM] | MIC MRSA ([2]; ATCC 33591) [µM] | SMILES | MBC S. aureus ([1]; ATTC 25923) [µM] | MBC MRSA ([2]; ATCC 33591) [µM] | MBC MRSE ([3]; ATCC 27626) [µM] | MBC E. coli ([4]; ATTC 25922) [µM] | MIC E. coli ([4]; ATTC 25922) | EC50 RBC (human red blood cells; [8]) | also measured |
| --- | --- | --- | --- | --- | --- | --- | --- | --- | --- | --- | --- |
| 49 | 35 | – | 49 (≈ 23.6 µg/mL) | N=C(N)NCCC[C@H](NC(=O)C(CN)(CCCc1ccccc1)CCCc1ccccc1)C(N)=O [Compound 4f] | 49 (≈ 23.6 µg/mL) | 49 (≈ 23.6 µg/mL) | 49 (≈ 23.6 µg/mL) | >282 | — (The notation “—”denotes no detectable activity (MIC or EC50) within the concentration range tested.) | — (The notation “—”denotes no detectable activity (MIC or EC50) within the concentration range tested.) | – |
| 10.2 | 6.8 | 136 | 6.8 (≈ 3.46 µg/mL) | CC(C)c1ccc(CC(CN)(Cc2ccc(C(C)C)cc2)C(=O)N[C@@H](CCCNC(=N)N)C(N)=O)cc1 [Compound 4j] | 6.8 (≈ 3.46 µg/mL) | 6.8 (≈ 3.46 µg/mL) | 6.8 (≈ 3.46 µg/mL) | 136 (≈ 69.2 µg/mL) | – | – | EC50 (human red blood cells): 386 µM |
| 60 | 35 | – | 49 (≈ 23.6 µg/mL) | Cc1cc(C)cc(CC(CN)(Cc2cc(C)cc(C)c2)C(=O)N[C@@H](CCCNC(=N)N)C(N)=O)c1 [Compound 4l] | 49 (≈ 23.6 µg/mL) | 49 (≈ 23.6 µg/mL) | 21 (≈ 10.1 µg/mL) | >282 | — (The notation “—”denotes no detectable activity (MIC or EC50) within the concentration range tested.) | — (The notation “—”denotes no detectable activity (MIC or EC50) within the concentration range tested.) | – |

Second part, the molecule before the results:

| SMILES | MIC [1, 5] [µM] | MIC ([3]; ATCC 27626, read-out: MIC MRSE) [µM] | MIC [4, 7] [µM] | MIC MRSA ([2]; ATCC 33591) [µM] | MBC S. aureus ([1]; ATTC 25923) [µM] | MBC MRSA ([2]; ATCC 33591) [µM] | MBC MRSE ([3]; ATCC 27626) [µM] | MBC E. coli ([4]; ATTC 25922) [µM] | MIC E. coli ([4]; ATTC 25922) | EC50 RBC (human red blood cells; [8]) | also measured |
| --- | --- | --- | --- | --- | --- | --- | --- | --- | --- | --- | --- |
| CCCC(CN)(CCC)C(=O)NCCN [Compound 1, N-(2-aminoethyl)-2-(aminomethyl)-2-propyl-pentanamide] | – | – | – | – | – | – | – | – | – | – | MIC ([1]; Staphylococcus aureus, Example 2, values separated by / are repeat tests, read-out: Antimicrobial potency (MIC) S. aureus): > 200 µg/mL; MIC ([2]; Staphylococcus aureus, ATCC 33591 / MRSA, Example 2, values separated by / are repeat tests, read-out: Antimicrobial potency (MIC) MRSA): > 200 µg/mL; MIC ([3]; Staphylococcus epidermidis, ATCC 27626 / MRSE, Example 2, values separated by / are repeat tests, read-out: Antimicrobial potency (MIC) MRSE): > 200 µg/mL; MIC ([4]; Escherichia coli, Example 2, values separated by / are repeat tests, read-out: Antimicrobial potency (MIC) E. coli): > 200 µg/mL |
| CN(C)CCN1CCN(C(=O)C(CN)(CCCc2ccccc2)CCCc2ccccc2)CC1 [Compound 4a] | 289 | 72 | 289 | – | >360 | >360 | >360 | >360 | — (The notation “—”denotes no detectable activity (MIC or EC50) within the concentration range tested.) | — (The notation “—”denotes no detectable activity (MIC or EC50) within the concentration range tested.) | MIC S. aureus ([1]; Example 1, ATTC 25923, di TFA salts, highest concentration tested 200 μg/ml): — (The notation “—”denotes no detectable activity (MIC or EC50) within the concentration range tested.); MIC [2, 6]: 72 µM; MIC MRSA ([2]; Example 1, ATCC 33591, di TFA salts, highest concentration tested 200 μg/ml): — (The notation “—”denotes no detectable activity (MIC or EC50) within the concentration range tested.); MIC MRSE ([3]; Example 1, ATCC 27626, di TFA salts, highest concentration tested 200 μg/ml): — (The notation “—”denotes no detectable activity (MIC or EC50) within the concentration range tested.); EC50 RBC (human red blood cells; Example 4, hemolytic activity, human red blood cells): — (The notation “—” denotes no detectable activity (MIC or EC50) within the concentration range tested.) |
| CN(C)CCN1CCN(C(=O)C(CN)(Cc2ccc(C(F)(F)F)cc2)Cc2ccc(C(F)(F)F)cc2)CC1 [Compound 4b] | – | – | 129 | 150 (≈ 81.7 µg/mL) | 301 (≈ 164 µg/mL) | 150 (≈ 81.7 µg/mL) | 75 (≈ 40.8 µg/mL) | >301 | — (The notation “—”denotes no detectable activity (MIC or EC50) within the concentration range tested.) | — (The notation “—”denotes no detectable activity (MIC or EC50) within the concentration range tested.) | Therapeutic index S. aureus ([1]; ATTC 25923): 25; Therapeutic index MRSA ([2]; ATCC 33591): 172; MIC [2, 6]: 6.5 µM; Therapeutic index MRSE ([3]; ATCC 27626): 17; Therapeutic index E. coli ([4]; ATTC 25922): 8.6; EC50 (human red blood cells): 1120 µM |
| N=C(N)NCCC[C@H](NC(=O)C(CN)(CCc1ccccc1)CCc1ccccc1)C(N)=O [Compound 4e] | 147 | 74 | – | 147 (≈ 66.5 µg/mL) | 147 (≈ 66.5 µg/mL) | 147 (≈ 66.5 µg/mL) | 74 (≈ 33.5 µg/mL) | >294 | — (The notation “—”denotes no detectable activity (MIC or EC50) within the concentration range tested.) | — (The notation “—”denotes no detectable activity (MIC or EC50) within the concentration range tested.) | – |
